Values of other authors in US10555523B2, “Self indicating antimicrobial chemistry” (ECOLAB USA INC, priority 2015, dated 2020).

Tested on: microorganisms

Compound: CC(=O)OO [Peracetic acid]
- concentration needed for biocidal activity: greater than 80 part per million
